Values of other authors as cited in US12521484B2, “Irrigation system and methods of use” (Osteal Therapeutics, Inc., priority 2023, dated 2026).

Experiments:
[1] = instillation of 50,000-100,000 μg/mL once or twice daily into the joint space; multiple patients
[2] = test system: multiple common PJI organisms

## CN[C@H](CC(C)C)C(=O)N[C@H]1C(=O)N[C@@H](CC(N)=O)C(=O)N[C@H]2C(=O)N[C@H]3C(=O)N[C@H](C(=O)N[C@H](C(=O)O)c4cc(O)cc(O)c4-c4cc3ccc4O)[C@H](O)c3ccc(c(Cl)c3)Oc3cc2cc(c3O[C@@H]2O[C@H](CO)[C@@H](O)[C@H](O)[C@H]2O[C@H]2C[C@](C)(N)[C@H](O)[C@H](C)O2)Oc2ccc(cc2Cl)[C@H]1O [vancomycin]
[1]
  serum concentrations: exceeding safe limits
[2]
  minimum biofilm eradication concentration (MBEC): greater than 4,000 μg/mL
